Source: US11185598B2, “Preparation of stabilised x-ray diagnostic composition” (GE HEALTHCARE AS, priority 2010, dated 2021)

What was measured:
Type in all cases: physicochemical
[1] = Stability of Compound I at different pH: inorganic iodide and pH after autoclaving; conditions: 320 mg I/ml, 121° C. 120 minutes or 134° C. 60 minutes
Description: Experiments were performed to investigate the level of inorganic iodide generated as a result of degeneration of Compound I as a result of a pH and heating regime. Reference is made to FIGS. 1 and 2. The heat load was controlled by using a BIER-vessel for the steam heat sterilisation. Formulated Compound I (drug product, DP, 320 mg I/ml) was added 25% HCl to obtain 4 series of 6 vials with a pH of 2.0, 3.1, 4.0 and 7.7, respectively.
DP (10 ml) was filled in 10 ml vials. 3 vials from each series were autoclaved at 121° C. for 120 minutes and the remaining 3 vials were autoclaved at 134° C. for 60 minutes. The samples, including 2 reference samples, were subjected to pH and iodide analyses.

[2] = Iodide level after steam heat sterilisation, conventional heating regime; conditions: 134° C. for 45 minutes, no reduced pH
Description: During the development of new iodinated X-ray contrast agents, several heating regimes have been tested to find the parameters to be used for the secondary productions. Among these are end heat steam sterilization at 134° C. or 121° C. for 45 minutes or more, pre-heating in the mixing tank above the dissolution temperature (e.g. 110-111° C./330 mg I/ml) using different regimes followed by end heat steam sterilization etc. Although some of these heating regimes might be capable of providing a physically stable solution, they may cause high levels of free iodide due to degeneration of the iodinated X-ray contrast agent (Scheme 1). […] This is above the acceptable level.

[3] = Solubility in water (comparison)
[4] = Saturation / dissolution temperature of contrast agent solution in water
From the text: The injection solution of Compound I is highly supersaturated. The nucleation (precipitation) in the injection solution at storage conditions is strongly undesirable. The physical stability of the solution, i.e. prevention of the nucleation for a certain time at storage conditions, may be improved substantially by heat treatment of the solution well above its saturation temperature for a sufficiently long period of time. A solution in which the concentration of the solute (API) exceeds the equilibrium solute concentration at a given temperature is said to be supersaturated. […] Such solutions are denoted as supersaturated. Saturation temperature is the temperature where all solid API (amorphous and crystalline) apparently dissolves completely. As the solubility of Compound I decreases with decreasing temperature, the supersaturation increases.
For a compound or contrast agent with a defined crystalline state (single polymorph) at one side, and a solvent including dissolved admixtures on the other, the concentration of the agent in the solution in equilibrium with the crystalline state is called solubility. At this concentration the activity of the agent is equal in both phases. A system out of the equilibrium stage tends to change the solution concentration towards the equilibrium (solubility), e.g. dissolve crystals when under-saturated, or crystallize out compound when supersaturated. Normally, the solubility changes, usually increases, with temperature. For the purpose, we define the temperature at which the crystal solubility is equal to the concentration in the particular solution as “dissolution temperature”. When a solution contains crystals, the crystals dissolve at temperatures above the “dissolution temperature”, remaining a crystal free solution. When the amount of the crystals is small, the concentration increase by dissolution may be neglected.

[5] = Inorganic iodide in X-ray composition prepared by the process of the invention (400 litre batch); conditions: 320 mg I/ml
Description: 261 kg of Compound I was dissolved in 250 litres of water for injection (WFI) and added 44 g Na2Ca-EDTA.2H2O in the mixing tank (A). HCl 5M was used to set the solution to pH 3. Under these conditions, to the composition underwent heating for 40 minutes at 122° C. […] This solution was cooled to approximately 50° C. and filtered through a 10 kDa ultrafilter. The remaining WFI to yield a solution of 320 mg I/ml of compound I was used to rinse the ultrafilter by dilution of the concentrated retentate. The filtered solution was dispensed and autoclaved for 20 minutes at 121° C. After autoclaving, the concentration of inorganic iodide was 10 μg/ml, which is approximately a fifth of the concentration resulting from a conventional production not using the process of the invention.

Compound	change in pH after autoclaving ([1]; start pH in the range 2-4)	iodide levels after autoclaving ([1]; start pH in the range 2-4)	change in pH after autoclaving ([1]; start pH of 7.7)	iodide levels after autoclaving ([1]; start pH of 7.7)	iodide levels after steam heat sterilisation [2]	solubility in water compared with iodixanol [3]	dissolution temperature ([4]; at 330 mg I/ml)	dissolution temperature ([4]; water for injection as solvent, concentration range 270-380 mg I/ml)	inorganic iodide concentration relative to conventional production not using the process ([5]; after autoclaving)	concentration of inorganic iodide after autoclaving ([5]; heated 40 minutes at 122° C. at pH 3, then pH 7.3, autoclaved 20 minutes at 121° C.)	saturation temperature ([4]; solution of about 320 mg I/ml in water)
O=CN(CC(O)CN(C=O)c1c(I)c(C(=O)NCC(O)CO)c(I)c(C(=O)NCC(O)CO)c1I)c1c(I)c(C(=O)NCC(O)CO)c(I)c(C(=O)NCC(O)CO)c1I (centres unmarked) [Compound I, 5-[formyl-[3-[formyl-[3,5-bis(2,3-dihydroxypropylcarbamoyl)-2,4,6-triiodophenyl]amino]-2-hydroxypropyl]amino]-N,N′-bis(2,3-dihydroxypropyl)-2,4,6-triiodobenzene-1,3-dicarboxamide]	no significant change in pH	only a minor increase in iodide levels	corresponding drop in pH	high iodide levels	75-85 μg I/ml	lower solubility in water than iodixanol	110-111 °C	~110 °C	approximately a fifth	10 µg/mL	
CC(=O)N(CC(O)CN(C(C)=O)c1c(I)c(C(=O)NCC(O)CO)c(I)c(C(=O)NCC(O)CO)c1I)c1c(I)c(C(=O)NCC(O)CO)c(I)c(C(=O)NCC(O)CO)c1I (centres unmarked) [iodixanol, reference compound]											approximately 92 °C
